In patent US20170312333A1, “Composition for Treating Cancer Stem Cells” (Industry-Academic Corporation Foundation, Yonsei University, priority 2014, published 2017):

Key:
s-MDA-MB-231 = test: Tumor volume in breast cancer animal model injected with cancer stem cells (S231); format: in vivo, BALB/c nude mice; conditions: for tumor volume: in mm³ (unit assumed)
Procedure: (§1) In order to identify a therapeutic method effective against cancer stem cells, breast cancer animal models were constructed. For construction of the breast cancer animal models, each of breast cancer cells (p-MDA-MB-231 and p-MCF-7) and breast cancer stem cell lines (s-MDA-MB-231 and s-MCF-7) was cultured in vitro, and the cultured cells were injected into the upper left flank of 5-6-week-old BALB/c nude mice at a density of 1.0×10^7 cells/mouse. Then, the mice were housed at 22° C. under a 12-hr light/12-hr dark cycle for 7 days while they were fed with water and feed, thereby constructing breast cancer animal models.

p-MDA-MB-231 = test: Tumor volume in breast cancer animal model injected with ordinary cancer cells (P231); format: in vivo, BALB/c nude mice
Procedure: as §1

cancer stem cells [1] = test: Viability of cancer stem cells under nutrient deprivation after PMCA or SERCA inhibition; format: cell-based
Procedure: In order to compare the viabilities of cancer cells and cancer stem cells under glucose deprivation, each of p-MDA-MB-231, p-MCF-7, s-MDA-MB-231 and s-MCF-7 cell lines, prepared in the same manner as described in Example 1, was added to a 96-well plate at a concentration of 5×10^3 cells/100 μL and cultured to a confluence of about 70%, and then the medium was replaced with a glucose-deprived in RPMI-1640 medium containing 10% FBS, and the cells were further cultured for 3 days. At each of 0, 12, 24, 36, 48, 60 and 72 hours, the viability of each of the cell lines was determined by crystal violet staining and an MTT (3-(4,5-dimethylthiazol-2-yl)-2,5-diphenyltetrazolium bromide) assay. In order to examine whether the calcium concentration regulatory ability of the cancer stem cells is changed when PMCA is inhibited under nutrient deprivation, the activity of PMCA and SERCA was inhibited by using caloxin (which is a calcium pump inhibitor) as an inhibitor of PMCA acting as Ca^2+-ATPase (calcium ATPase) in the plasma membrane and using thapsigargin which is an inhibitor of SERCA (sarco/endoplasmic reticulum Ca^2+-ATPase) acting as Ca^2+-ATPase (calcium ATPase), and then changes in the extracellular Ca^2+ concentrations of the cancer stem cells were measured.

cancer stem cells [2] = test: Extracellular Ca2+ concentration of cancer stem cells after PMCA or SERCA inhibition; format: cell-based; conditions: nutrient deprivation
Excerpt: In order to examine whether the calcium concentration regulatory ability of the cancer stem cells is changed when PMCA is inhibited under nutrient deprivation, the activity of PMCA and SERCA was inhibited by using caloxin (which is a calcium pump inhibitor) as an inhibitor of PMCA acting as Ca^2+-ATPase (calcium ATPase) in the plasma membrane and using thapsigargin which is an inhibitor of SERCA (sarco/endoplasmic reticulum Ca^2+-ATPase) acting as Ca^2+-ATPase (calcium ATPase), and then changes in the extracellular Ca^2+ concentrations of the cancer stem cells were measured.

cancer stem cells [3] = test: TUNEL assay (apoptosis, DNA fragmentation) in cancer stem cells under nutrient deprivation; format: cell-based; conditions: 10 μM
Procedure: In order to examine whether the reason why cancer stem cells show high viability under nutrient deprivation is because of their resistance to apoptosis, each of p-MDA-MB-231, p-MCF-7, s-MDA-MB-231 and s-MCF-7 cell lines, cultured under glucose deprivation for 40 hours in the same manner as described in Example 2, was collected and subjected to a TUNEL assay. In the TUNEL assay, the collected cells were fixed with 4% paraformaldehyde solution for 48 hours, and then stained using a Terminal Deoxynucleotidyl Transferase dUTP Nick end Labeling (TUNEL) kit according to the manufacturer's protocol, and the fluorescence images of the cells were acquired with a fluorescence microscope and analyzed using Zeiss LSM Image Browser software program. […]
(§2) In order to examine an effect which occurs when CaMK-2α signaling is inhibited, the cancer stem cells were treated with 10 μM of KN62 (1-[N,O-bis(5-isoquinolinesulfonyl)-N-methyl-L-tyrosyl]-4-phenylpiperazine) well known as an inhibitor of CaMK-2α, and then a TUNEL assay was performed in the same manner as described in Example 3.1 to examine apoptosis and DNA fragmentation. In addition, Western blotting was performed in the same manner as described in Example 3.2 to examine the expression of genes, and the viability of the cells was measured in the same manner as described in Example 2.

cancer stem cells [4] = test: Immunoblot analysis (Western blotting) of cancer stem cells under nutrient deprivation; format: cell-based; conditions: 10 μM
Procedure: In order to examine whether apoptosis-related proteins are involved in apoptotic resistance which is the reason why the cancer stem cells show high viability under nutrient deprivation, each of p-MDA-MB-231, p-MCF-7, s-MDA-MB-231 and s-MCF-7 cell lines, cultured under glucose deprivation for 40 hours in the same manner as described in Example 2, was collected and subjected to immunoblot analysis. The collected cells were washed twice with chilled PBS (phosphate buffered saline) buffer, and lysed with RIPA buffer to isolate protein. For the next experiment, the amount of the isolated protein was measured by a BCA assay. 20 μg of the protein obtained from each of the cell lines was electrophoresed on 8-10% SDS-polyacrylamide gel and transferred to a PVDF membrane using electricity. The protein-transferred PVDP membranes were treated with 5% skim milk at room temperature for 1 hour, and then incubated with a primary antibody against each of caspase-3, caspase-7, Bcl-2 and beta-actin (control) at 4° C. for 16 hours. The PVDP membranes incubated with the antibodies were washed three times with TBST buffer to remove unbound primary antibodies, and were further incubated with HPR-conjugated secondary antibodies at room temperature for 1 hour. After completion of the incubation, the membranes were washed with TBST buffer to completely remove the secondary antibodies, and were treated with ECL buffer and incubated for 3 minutes, followed by exposure to Kodak X-OMAT AR Film. […]
as §2

SMILES: O=CC[C@@H](O)[C@H](O)[C@H](O)CO [2DG, 2-deoxyglucose]
- tumor volume (s-MDA-MB-231; S231, day 7, i.p. once a day, 2DG 500 mg/kg, metformin 250 mg/kg, caloxin 2al 200 mg/kg): 228.5 ± 23
- tumor volume (s-MDA-MB-231; S231, day 10, same dosing): 277.6 ± 21
- tumor volume (s-MDA-MB-231; S231, day 13, same dosing): 474.4 ± 31
- tumor volume (s-MDA-MB-231; S231, day 16, same dosing): 539.2 ± 33
- tumor volume (s-MDA-MB-231; S231, day 19, same dosing): 638.2 ± 49
- tumor volume (s-MDA-MB-231; S231, day 22, same dosing): 777.0 ± 35
- tumor volume (s-MDA-MB-231; S231, day 25, same dosing): 911.6 ± 35
- tumor volume (s-MDA-MB-231; S231, day 28, same dosing): 1077.4 ± 68
- tumor volume (s-MDA-MB-231; S231, day 31, same dosing): 1290.6 ± 72
- tumor volume (s-MDA-MB-231; S231, day 34, same dosing): 1722.1 ± 69
- tumor volume (s-MDA-MB-231; S231, day 37, same dosing): 2471.7 ± 81
- tumor volume (s-MDA-MB-231; S231, day 40, same dosing): 3173.2 ± 105
- tumor volume (s-MDA-MB-231; S231, day 43, same dosing): 4065.2 ± 119
- tumor volume compared to control group (in words) (s-MDA-MB-231; cancer stem cell model): slightly decreased
- tumor volume (p-MDA-MB-231; P231, day 7, i.p. once a day, 2DG 500 mg/kg, metformin 250 mg/kg, caloxin 2al 200 mg/kg, in mm³ (unit assumed)): 219.1 ± 35
- tumor volume (p-MDA-MB-231; P231, day 10, same dosing): 302 ± 49
- tumor volume (p-MDA-MB-231; P231, day 13, same dosing, in mm³ (unit assumed)): 337.6 ± 47
- tumor volume (p-MDA-MB-231; P231, day 16, same dosing, in mm³ (unit assumed)): 388.6 ± 47
- tumor volume (p-MDA-MB-231; P231, day 19, same dosing, in mm³ (unit assumed)): 440.7 ± 45
- tumor volume (p-MDA-MB-231; P231, day 22, same dosing, in mm³ (unit assumed)): 513.4 ± 46
- tumor volume (p-MDA-MB-231; P231, day 25, same dosing, in mm³ (unit assumed)): 621.4 ± 50
- tumor volume (p-MDA-MB-231; P231, day 28, same dosing, in mm³ (unit assumed)): 834.4 ± 48
- tumor volume (p-MDA-MB-231; P231, day 31, same dosing, in mm³ (unit assumed)): 1142.7 ± 50
- tumor volume (p-MDA-MB-231; P231, day 34, same dosing, in mm³ (unit assumed)): 1547.4 ± 57
- tumor volume (p-MDA-MB-231; P231, day 37, same dosing, in mm³ (unit assumed)): 1944.2 ± 64
- tumor volume (p-MDA-MB-231; P231, day 40, same dosing, in mm³ (unit assumed)): 2359.0 ± 48
- tumor volume (p-MDA-MB-231; P231, day 43, same dosing, in mm³ (unit assumed)): 2866.1 ± 45

SMILES: C/C=C(/C)C(=O)O[C@H]1C(C)=C2[C@H]([C@@H]1OC(=O)CCCCCCC)[C@@](C)(OC(C)=O)C[C@H](OC(=O)CCC)[C@@]1(O)[C@H]2OC(=O)[C@@]1(C)O [thapsigargin]
- viability of the cells (cancer stem cells [1]): also high
- extracellular calcium concentration of the cancer stem cells (cancer stem cells [2]): maintained at a high level

SMILES: CN([C@@H](Cc1ccc(OS(=O)(=O)c2cccc3cnccc23)cc1)C(=O)N1CCN(c2ccccc2)CC1)S(=O)(=O)c1cccc2cnccc12 [KN62, 1-[N,O-bis(5-isoquinolinesulfonyl)-N-methyl-L-tyrosyl]-4-phenylpiperazine]
- apoptosis (TUNEL assay) (cancer stem cells [3]): inducing apoptosis
- expression of IP3R (cancer stem cells [4]): inhibited
- expression of SERCA2 (cancer stem cells [4]): increased
- phosphorylation of NF-kB (cancer stem cells [4]): did not occur
